Experimental data published in patent publication US20170107207A1, “AMINOPYRAZOLONE DERIVATIVE” (DAIICHI SANKYO COMPANY, LIMITED, priority 2014, published 2017).

Experiments:
Assay type in all cases: cell-based
T24 = test: Cell growth inhibition test, T24; details: Homo sapiens, T-24, 72 h; T24, Bladder cancer, 3 days, CellTiter-Glo
Description: (§1) A cell growth inhibition test was carried out by treating a cultured cancer cell line with a test compound for a given period and then counting the number of viable cells by CellTiter-Glo Luminescent Cell Viability Assay (manufactured by Promega Corp.).
(§2) The following cells were inoculated to a 384-well plate containing the compound prepared in advance at predetermined concentrations. […]
(§3) The cells thus inoculated were cultured at 37° C. for 3 days under 5% CO2. […] Then, luminescence intensity was measured using a plate reader.
(§4) The number of viable cells and luminescence intensity have been confirmed to correlate with each other. Therefore, the rate of cell growth was calculated according to the following expression: Rate of cell growth (T/C %) of a test compound-supplemented well=100×[(B−C)/(A−C)] wherein A represents the luminescence intensity (final culture date) of a test compound-free well; B represents the luminescence intensity (final culture date) of a test compound-containing well; and C represents the luminescence intensity (day of cell inoculation) of a well at the start of contact of the cells with the test compound.
(§5) T/C % at the concentration of each of the serially diluted test compounds was determined. […]

SK-BR-3 = test: Cell growth inhibition test, SK-BR-3; details: Homo sapiens, 72 h; SK-BR-3, Breast cancer, 3 days, CellTiter-Glo
Description: as §1, §2, §3, §4, §5

U-138 MG = test: Cell growth inhibition test, U-138 MG; details: Homo sapiens, U138-MG, 72 h, Brain tumor Central Nerve System, 3 days, CellTiter-Glo
Description: as §1, §2, §3, §4, §5

SW620 = test: Cell growth inhibition test, SW620; details: Homo sapiens, SW-620, 72 h; SW620, Large intestine cancer, 3 days, CellTiter-Glo
Description: as §1, §2, §3, §4, §5

ES-2 = test: Cell growth inhibition test, ES-2; details: Homo sapiens, 72 h; ES-2, Ovary cancer, 3 days, CellTiter-Glo
Description: as §1, §2, §3, §4, §5

SK-OV-3 = test: Cell growth inhibition test, SK-OV-3; details: Homo sapiens, 72 h; SK-OV-3, Ovary cancer, 3 days, CellTiter-Glo
Description: as §1, §2, §3, §4, §5

AN3CA = test: Cell growth inhibition test, AN3CA; details: Homo sapiens, AN3-CA, 72 h, Endometrial cancer, 3 days, CellTiter-Glo
Description: as §1, §2, §3, §4, §5

SNU-1 = test: Cell growth inhibition test, SNU-1; details: Homo sapiens, SNU1, 72 h; SNU-1, Stomach cancer, 3 days, CellTiter-Glo
Description: as §1, §2, §3, §4, §5

MKN45 = test: Cell growth inhibition test, MKN45; details: Homo sapiens, MKN-45, 72 h; MKN45, Stomach cancer, 3 days, CellTiter-Glo
Description: as §1, §2, §3, §4, §5

FaDu = test: Cell growth inhibition test, FaDu; details: Homo sapiens, 72 h, Head and neck cancer, 3 days, CellTiter-Glo
Description: as §1, §2, §3, §4, §5

NALM-6 = test: Cell growth inhibition test, NALM-6; details: Homo sapiens, 72 h; NALM-6, Leukemia, 3 days, CellTiter-Glo
Description: as §1, §2, §3, §4, §5

MV-4-11 = test: Cell growth inhibition test, MV-4-11; details: Homo sapiens, MV4-11, 72 h; MV-4-11, Leukemia, 3 days, CellTiter-Glo
Description: as §1, §2, §3, §4, §5

KARPAS 422 = test: Cell growth inhibition test, KARPAS 422; details: Homo sapiens, 72 h; KARPAS 422, Lymphoma, 3 days, CellTiter-Glo
Description: as §1, §2, §3, §4, §5

NCI-H1975 = test: Cell growth inhibition test, NCI-H1975; details: Homo sapiens, 72 h; NCI-H1975, Lung cancer, 3 days, CellTiter-Glo
Description: as §1, §2, §3, §4, §5

DMS 273 = test: Cell growth inhibition test, DMS 273; details: Homo sapiens, 72 h; DMS 273, Lung cancer, 3 days, CellTiter-Glo
Description: as §1, §2, §3, §4, §5

PANC-1 = test: Cell growth inhibition test, PANC-1; details: Homo sapiens, 72 h; PANC-1, Pancreatic cancer, 3 days, CellTiter-Glo
Description: as §1, §2, §3, §4, §5

COLO 829 = test: Cell growth inhibition test, COLO 829; details: Homo sapiens, 72 h; COLO 829, Skin cancer, 3 days, CellTiter-Glo
Description: as §1, §2, §3, §4, §5

SK-MEL-28 = test: Cell growth inhibition test, SK-MEL-28; details: Homo sapiens, 72 h; SK-MEL-28, Skin cancer, 3 days, CellTiter-Glo
Description: as §1, §2, §3, §4, §5

HT-1080 = test: Cell growth inhibition test, HT-1080; details: Homo sapiens, 72 h; HT-1080, Bone and soft tissue tumor, 3 days, CellTiter-Glo
Description: as §1, §2, §3, §4, §5

GI50 (T24) [nM] | GI50 (SK-BR-3) [nM] | GI50 (SW620) [nM] | GI50 (SK-OV-3) [nM] | GI50 (SNU-1) [nM] | GI50 (MKN45) [nM] | GI50 (MV-4-11) [nM] | GI50 (KARPAS 422) [nM] | GI50 (NCI-H1975) [nM] | GI50 (PANC-1) [nM] | GI50 (COLO 829) [nM] | GI50 (SK-MEL-28) [nM] | GI50 (HT-1080) [nM] | Structure (SMILES) | GI50 (U-138 MG) [nM] | GI50 (ES-2) [nM] | GI50 (AN3CA) [nM] | GI50 (FaDu) [nM] | GI50 (NALM-6) [nM] | GI50 (DMS 273) [nM]
650 | 520 | 840 | 510 | 230 | 480 | 210 | 200 | 490 | 900 | 200 | 590 | 220 | CCOc1ccc(Cl)cc1C(=O)NCC(C)(C)CC(=O)Nc1c([C@H](C)CN(C)C)n(C)n(-c2ccccc2)c1=O [Example 68, 5-Chloro-N-[4-({5-[(1R)-2-(dimethylamino)-1-methylethyl]-1-methyl-3-oxo-2-phenyl-2,3-dihydro-1H-pyrazol-4-yl}amino)-2,2-dimethyl-4-oxobutyl]-2-ethoxybenzamide] | 670 | 480 | 740 | 210 | 130 | 310
850 | 1000 | 1600 | 980 | 710 | 1100 | 490 | 350 | 900 | 2000 | 480 | 920 | 520 | CCOc1ncc(Cl)cc1C(=O)NCC(C)(C)CC(=O)Nc1c([C@H](C)CN(C)C)n(C)n(-c2ccccc2)c1=O [Example 73, 5-Chloro-N-[4-({5-[(1R)-2-(dimethylamino)-1-methylethyl]-1-methyl-3-oxo-2-phenyl-2,3-dihydro-1H-pyrazol-4-yl}amino)-2,2-dimethyl-4-oxobutyl]-2-ethoxypyridine-3-carboxamide] | 1000 | 900 | 2200 | 460 | 330 | 780
490 | 650 | 910 | 700 | 580 | 1000 | 400 | 450 | 810 | 1200 | 350 | 800 | 350 | CCOc1cc(F)c(Cl)cc1C(=O)NCC(C)(C)CC(=O)Nc1c(COC)n(C)n(-c2ccccc2)c1=O [Example 113, 5-Chloro-2-ethoxy-4-fluoro-N-(4-{[5-(methoxymethyl)-1-methyl-3-oxo-2-phenyl-2,3-dihydro-1H-pyrazol-4-yl]amino}-2,2-dimethyl-4-oxobutyl)benzamide] | 1000 | 750 | 1400 | 350 | 270 | 540
